Assay results taken from DBAASP.
≈ marks a conversion by molar mass, not a printed value.

Assays:
Test in all cases: ≥ marks a high value that may be exact or a test limit, other limits are often not marked, values filed in µg/mL are converted to µM
Bacillus cereus AS1.126 = tested on: Bacillus cereus AS1.126
[1] = tested on: Candida albicans CMCC 98001
[2] = tested on: Enterobacter cloacae CGMCC 1.58
[3] = tested on: Enterococcus faecalis CGMCC 1.595
[4] = tested on: Enterococcus faecium CGMCC 1.2334
Escherichia coli AS1.349 = tested on: Escherichia coli AS1.349
[5] = tested on: Fusobacterium nucleatum CGMCC 1.2526
[6] = tested on: Klebsiella aerogenes CGMCC 1.876
[7] = tested on: Klebsiella pneumoniae subsp. pneumoniae CGMCC 1.176
[8] = tested on: Lactobacillus acidophilus CGMCC 1.1854
[9] = tested on: Lactococcus lactis AS1.1690
[10] = tested on: Pseudomonas aeruginosa CGMCC 1.860
[11] = tested on: Staphylococcus aureus AS1.72
[12] = tested on: Streptococcus mutans CGMCC 1.2500
[13] = tested on: Streptococcus salivarius CGMCC 1.2498
[14] = tested on: Streptococcus sanguinis CGMCC 1.2497
[15] = tested on: Enterococcus faecalis ATCC 29212
[16] = tested on: Enterococcus faecalis NCTC 12203
[17] = tested on: Escherichia coli ATCC 25922
Escherichia coli UB1005 = tested on: Escherichia coli UB1005
Escherichia coli = tested on: Escherichia coli
[18] = tested on: Staphylococcus aureus ATCC 29213
Staphylococcus aureus MR = tested on: Staphylococcus aureus MR
[19] = tested on: Staphylococcus epidermidis
Bacillus cereus = tested on: Bacillus cereus
Bacillus megaterium = tested on: Bacillus megaterium
Bacillus sp. ATCC 14412 = tested on: Bacillus sp. ATCC 14412
Candida albicans A39 = tested on: Candida albicans A39
Candida glabrata = tested on: Candida glabrata
Candida krusei = tested on: Candida krusei
[20] = tested on: Cryptococcus neoformans Steroform A
[21] = tested on: Cryptococcus neoformans Steroform B
[22] = tested on: Cryptococcus neoformans Steroform C
[23] = tested on: Cryptococcus neoformans Steroform D
Micrococcus luteus = tested on: Micrococcus luteus
[24] = tested on: Staphylococcus haemolyticus
Yarrowia lipolytica = tested on: Yarrowia lipolytica
[25] = tested on: Acholeplasma laidlawii A-PG8
Bacillus megaterium KM = tested on: Bacillus megaterium KM
Escherichia coli K-12 = tested on: Escherichia coli K-12
Micrococcus luteus A270 = tested on: Micrococcus luteus A270
[26] = tested on: Pseudomonas aeruginosa ATCC 27853
[27] = tested on: Salmonella typhimurium CIP 6062
[28] = tested on: Sinorhizobium meliloti 102F34
[29] = tested on: Spiroplasma melliferum BC3
[30] = tested on: Staphylococcus aureus ATCC 25923
Enterobacter cloacae = tested on: Enterobacter cloacae
Escherichia coli P4 = tested on: Escherichia coli P4
Klebsiella aerogenes = tested on: Klebsiella aerogenes
Klebsiella pneumoniae = tested on: Klebsiella pneumoniae
Pseudomonas aeruginosa = tested on: Pseudomonas aeruginosa
Serratia marcescens = tested on: Serratia marcescens
[31] = tested on: Staphylococcus aureus ATCC 25023

## CC[C@H](C)[C@H](N)C(=O)N[C@@H](CCCCN)C(=O)N[C@@H](CCCCN)C(=O)N[C@H](C(=O)N[C@H](C(=O)N[C@@H](CO)C(=O)N[C@@H](CCCCN)C(=O)N[C@H](C(=O)N[C@@H](CCCCN)C(=O)N[C@@H](CCCCN)C(=O)N[C@@H](CC(C)C)C(=O)N[C@@H](CC(C)C)C(N)=O)[C@@H](C)CC)C(C)C)[C@@H](C)CC [IKKIVSKIKKLL]
Bacillus cereus AS1.126
  MIC: 3.12 µM (≈ 4.4 µg/mL)
[1]
  MIC: 12.5 µM (≈ 17.6 µg/mL)
[2]
  MIC: 3.12 µM (≈ 4.4 µg/mL)
[3]
  MIC: 6.25 µM (≈ 8.81 µg/mL)
[4]
  MIC: 6.25 µM (≈ 8.81 µg/mL)
Escherichia coli AS1.349
  MIC: 3.12 µM (≈ 4.4 µg/mL)
[5]
  MIC: 18.8 µM (≈ 26.4 µg/mL)
[6]
  MIC: 3.12 µM (≈ 4.4 µg/mL)
[7]
  MIC: 6.25 µM (≈ 8.81 µg/mL)
[8]
  MIC: 25 µM (≈ 35.2 µg/mL)
[9]
  MIC: 3.12 µM (≈ 4.4 µg/mL)
[10]
  MIC: 3.12 µM (≈ 4.4 µg/mL)
[11]
  MIC: 3.12 µM (≈ 4.4 µg/mL)
[12]
  MIC: 12.5 µM (≈ 17.6 µg/mL)
[13]
  MIC: 6.25 µM (≈ 8.81 µg/mL)
[14]
  MIC: 3.13 µM (≈ 4.41 µg/mL)

## CC[C@H](C)[C@H](NC(=O)[C@H](CCCCN)NC(=O)[C@@H](N)Cc1c[nH]c2ccccc12)C(=O)N[C@H](C(=O)N[C@@H](Cc1ccccc1)C(=O)N[C@@H](Cc1c[nH]c2ccccc12)C(=O)N[C@@H](Cc1c[nH]c2ccccc12)C(=O)N[C@@H](CCCN=C(N)N)C(=O)N[C@@H](CCCN=C(N)N)C(N)=O)C(C)C [WKIVFWWRR]
[15]
  MIC: 0.726 µM (≈ 0.999 µg/mL)
[16]
  MIC: 0.726 µM (≈ 0.999 µg/mL)
[17]
  MIC: 1.45 µM (≈ 2 µg/mL)
Escherichia coli UB1005
  MIC: 2.91 µM (≈ 4 µg/mL)
Escherichia coli
  MIC: 1.45 µM (≈ 2 µg/mL)
[18]
  MIC: 0.363 µM (≈ 0.5 µg/mL)
Staphylococcus aureus MR
  MIC: 0.363 µM (≈ 0.5 µg/mL)
[19]
  MIC: 0.182 µM (≈ 0.25 µg/mL)

## CC[C@H](C)[C@H](NC(=O)[C@H](Cc1ccccc1)NC(=O)[C@@H](NC(=O)[C@@H]1CCCN1C(=O)[C@H](CCCN=C(N)N)NC(=O)[C@H](CO)NC(=O)[C@@H]1CCCN1C(=O)[C@H](CCCCN)NC(=O)[C@H](CCCN=C(N)N)NC(=O)[C@H](CC(C)C)NC(=O)[C@@H]1CCCN1C(=O)[C@H](CCCN=C(N)N)NC(=O)[C@@H](NC(=O)[C@H](Cc1ccc(O)cc1)NC(=O)CNC(=O)[C@H](CO)NC(=O)[C@H](CO)NC(=O)[C@@H](N)Cc1cnc[nH]1)[C@@H](C)O)[C@@H](C)CC)C(=O)N[C@@H](CCCN=C(N)N)C(=O)N1CCC[C@H]1C(=O)N[C@H](C(=O)NCC(N)=O)[C@@H](C)CC [HSSGYTRPLRKPSRPIFIRPIG]
Bacillus cereus
  MIC: ≥ 50 µM
Bacillus megaterium
  MIC: ≥ 50 µM
Bacillus sp. ATCC 14412
  MIC: 4.42 µM (≈ 11.2 µg/mL)
Candida albicans A39
  MIC: 17.7 µM (≈ 44.8 µg/mL)
Candida glabrata
  MIC: 7.07 µM (≈ 17.9 µg/mL)
Candida krusei
  MIC: 7.07 µM (≈ 17.9 µg/mL)
[20]
  MIC: 3.16 µM (≈ 8.02 µg/mL)
[21]
  MIC: 3.16 µM (≈ 8.02 µg/mL)
[22]
  MIC: 1.79 µM (≈ 4.53 µg/mL)
[23]
  MIC: 1.13 µM (≈ 2.87 µg/mL)
Escherichia coli
  MIC: > 50 µM
Micrococcus luteus
  MIC: 8.84 µM (≈ 22.4 µg/mL)
[24]
  MIC: ≥ 50 µM
Yarrowia lipolytica
  MIC: 3.16 µM (≈ 8.02 µg/mL)

## CC[C@H](C)[C@H](NC(=O)CNC(=O)[C@H](CO)NC(=O)[C@H](C)NC(=O)[C@@H](NC(=O)[C@H](CCCCN)NC(=O)[C@H](CO)NC(=O)[C@H](CCSC)NC(=O)[C@H](Cc1c[nH]c2ccccc12)NC(=O)CN)[C@@H](C)CC)C(=O)NCC(=O)N[C@H](C(=O)N[C@@H](Cc1ccccc1)C(=O)N[C@@H](CC(C)C)C(=O)N[C@@H](CO)C(=O)NCC(=O)N[C@@H](CCSC)C(=O)N[C@@H](CCC(N)=O)C(=O)N[C@@H](CCC(N)=O)C(N)=O)[C@@H](C)O [GWMSKIASGIGTFLSGMQQ]
[25]
  MIC: 12.5 µM (≈ 25 µg/mL)
Bacillus megaterium KM
  MIC: 3.12 µM (≈ 6.23 µg/mL)
Escherichia coli K-12
  MIC: 10 µM (≈ 20 µg/mL)
Micrococcus luteus A270
  MIC: 3 µM (≈ 6 µg/mL)
[26]
  MIC: > 100 µM
[27]
  MIC: ≥ 100 µM
[28]
  MIC: 12.5 µM (≈ 25 µg/mL)
[29]
  MIC: ≥ 50 µM
[30]
  MIC: > 100 µM

## CC[C@H](C)[C@H](NC(=O)[C@H](Cc1ccccc1)NC(=O)[C@H](CC(N)=O)NC(=O)[C@H](CCCCN)NC(=O)[C@H](CCCN=C(N)N)NC(=O)[C@H](C)NC(=O)[C@H](CCCCN)NC(=O)[C@H](Cc1c[nH]c2ccccc12)NC(=O)[C@@H](N)CCCCN)C(=O)N[C@@H](CCCCN)C(=O)NCC(=O)N[C@@H](CO)C(=O)N[C@@H](CO)C(=O)N[C@@H](CC(C)C)C(=O)NCC(=O)N[C@@H](Cc1c[nH]c2ccccc12)C(=O)N[C@@H](CC(C)C)C(=O)N[C@H](C(=O)N[C@@H](CCC(N)=O)C(=O)N[C@@H](CC(C)C)C(=O)N[C@@H](Cc1ccccc1)C(=O)N[C@@H](CCCN=C(N)N)C(=O)N[C@@H](CCCCN)C(=O)N[C@@H](CCCN=C(N)N)C(=O)O)[C@@H](C)CC [KWKARKNFIKGSSLGWLIQLFRKR]
Enterobacter cloacae
  MIC: 15.3 µM (≈ 45.3 µg/mL)
[17]
  MIC: 15.3 µM (≈ 45.3 µg/mL)
Escherichia coli P4
  MIC: 10.8 µM (≈ 32 µg/mL)
Escherichia coli
  MIC: 15.3 µM (≈ 45.3 µg/mL)
Klebsiella aerogenes
  MIC: 21.6 µM (≈ 64 µg/mL)
Klebsiella pneumoniae
  MIC: 15.3 µM (≈ 45.3 µg/mL)
Pseudomonas aeruginosa
  MIC: 43.2 µM (≈ 128 µg/mL)
Serratia marcescens
  MIC: ≥ 173 µM
[18]
  MIC: 21.6 µM (≈ 64 µg/mL)

## CC(C)C[C@H](NC(=O)[C@H](CCCN=C(N)N)NC(=O)[C@H](CC(C)C)NC(=O)[C@H](CC(C)C)NC(=O)[C@H](CC(C)C)NC(=O)[C@H](CCCCN)NC(=O)[C@H](CC(C)C)NC(=O)[C@@H](N)CCCN=C(N)N)C(N)=O [RLKLLLRL]
[31]
  MIC: ≥ 125 µM
